The source made the active and inactive calls.

In test [1] the target is T1, Sentrin-specific protease 6 (Homo sapiens, UniProt Q9GZR1).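 Also: Luminescence-based dose-response confirmatory assay of SENP6 inhibition, following up an ultra-high-throughput screen.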
T1 sequence (Q9GZR1 whole entry): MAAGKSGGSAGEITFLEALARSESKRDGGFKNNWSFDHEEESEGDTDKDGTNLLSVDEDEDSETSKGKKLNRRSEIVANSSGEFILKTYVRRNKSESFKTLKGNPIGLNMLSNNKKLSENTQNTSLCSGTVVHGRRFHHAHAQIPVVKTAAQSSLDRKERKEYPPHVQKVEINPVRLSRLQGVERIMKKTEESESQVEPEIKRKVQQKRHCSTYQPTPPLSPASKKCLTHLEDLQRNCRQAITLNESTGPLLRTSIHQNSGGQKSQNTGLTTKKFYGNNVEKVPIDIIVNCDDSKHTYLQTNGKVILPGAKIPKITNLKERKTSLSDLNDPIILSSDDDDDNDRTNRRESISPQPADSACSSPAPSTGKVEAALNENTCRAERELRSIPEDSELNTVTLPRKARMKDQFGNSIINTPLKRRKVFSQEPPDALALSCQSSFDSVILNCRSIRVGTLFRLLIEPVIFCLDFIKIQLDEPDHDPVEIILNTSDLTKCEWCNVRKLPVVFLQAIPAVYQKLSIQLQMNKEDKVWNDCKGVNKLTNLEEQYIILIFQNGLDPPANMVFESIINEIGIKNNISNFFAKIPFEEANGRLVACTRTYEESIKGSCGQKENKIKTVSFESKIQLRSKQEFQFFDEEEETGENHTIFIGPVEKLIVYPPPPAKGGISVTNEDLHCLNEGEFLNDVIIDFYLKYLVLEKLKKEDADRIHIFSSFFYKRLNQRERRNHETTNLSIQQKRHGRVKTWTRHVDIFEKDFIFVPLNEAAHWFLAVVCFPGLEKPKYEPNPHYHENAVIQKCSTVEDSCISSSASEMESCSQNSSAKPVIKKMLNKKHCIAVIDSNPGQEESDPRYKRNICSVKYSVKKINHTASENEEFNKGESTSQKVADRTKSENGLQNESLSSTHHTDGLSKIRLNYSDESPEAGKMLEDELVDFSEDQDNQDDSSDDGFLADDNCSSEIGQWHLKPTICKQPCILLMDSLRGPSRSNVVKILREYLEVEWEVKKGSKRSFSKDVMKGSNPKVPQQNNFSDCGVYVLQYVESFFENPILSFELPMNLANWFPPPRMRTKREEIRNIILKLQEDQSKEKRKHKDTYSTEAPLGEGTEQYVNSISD
Type of test: functional.

Test [2] is described as follows: Luminescence-based dose response cell-based high throughput screening assay for cytotoxic compounds using the IEC-6 intestinal epithelial cell line. [Related pubchem assays: 1858 (Summary AID.), 1825 (Counterscreen.), 1907 (Confirmation screen.)]. It counts as functional.
Test [3] is described as follows: HEK-293T viability loss after treatment – luminescence, T-cell screen hits, cytotoxicity control for TCR NF-kB inhibitor project, dose response (AID 489026).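 Also: cells exposed to compound about 14 hours before the viability readout.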 Type of test: functional, cell-based.
Test [4] has as its target Photoreceptor-specific nuclear receptor (Homo sapiens, UniProt Q9Y5X4). Type of test: functional, cell-based.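 Also: CHO-S cells with Gal4-NCOR and VP16-NR2E3 two-hybrid luciferase reporter.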
In test [5] the target is T2, Rac GTPase-activating protein 1 (Homo sapiens, UniProt Q9H0H5).
T2 sequence (Q9H0H5 whole entry): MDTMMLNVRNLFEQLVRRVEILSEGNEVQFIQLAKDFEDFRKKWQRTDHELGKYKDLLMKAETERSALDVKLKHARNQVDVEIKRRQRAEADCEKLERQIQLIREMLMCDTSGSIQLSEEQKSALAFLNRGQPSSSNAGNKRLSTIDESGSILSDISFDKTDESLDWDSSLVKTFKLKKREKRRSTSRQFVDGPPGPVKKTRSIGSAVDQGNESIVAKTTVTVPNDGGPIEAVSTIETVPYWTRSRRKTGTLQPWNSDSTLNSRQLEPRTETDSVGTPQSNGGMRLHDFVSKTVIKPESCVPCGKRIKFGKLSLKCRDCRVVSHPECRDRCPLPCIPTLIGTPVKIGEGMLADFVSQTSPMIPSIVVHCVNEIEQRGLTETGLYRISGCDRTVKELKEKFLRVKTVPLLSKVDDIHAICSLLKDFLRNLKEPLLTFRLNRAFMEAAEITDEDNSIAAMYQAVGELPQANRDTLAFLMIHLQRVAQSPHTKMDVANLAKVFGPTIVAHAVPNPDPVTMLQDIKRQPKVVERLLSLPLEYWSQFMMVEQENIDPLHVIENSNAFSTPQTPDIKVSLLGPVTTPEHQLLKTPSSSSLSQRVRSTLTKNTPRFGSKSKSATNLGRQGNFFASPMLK
Nature of the test: blockers of MgcRacGAP-driven Rac1 GTP hydrolysis – biochemical, ADP Hunter fluorescence, primary and confirmatory, confirmation (AID 624330). Type of test: functional.

Test [6] is described as follows: viability loss in HeLa cells – cytotoxicity control for MgcRacGAP inhibitor project, dose response (AID 624300). It counts as functional.
Another test has as its target T3, Cysteine protease ATG4B (Homo sapiens, UniProt Q9Y4P1).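 Also: Fluorescence-based dose-response confirmation assay measuring inhibition of ATG4B activity.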
T3 sequence (Q9Y4P1 whole entry): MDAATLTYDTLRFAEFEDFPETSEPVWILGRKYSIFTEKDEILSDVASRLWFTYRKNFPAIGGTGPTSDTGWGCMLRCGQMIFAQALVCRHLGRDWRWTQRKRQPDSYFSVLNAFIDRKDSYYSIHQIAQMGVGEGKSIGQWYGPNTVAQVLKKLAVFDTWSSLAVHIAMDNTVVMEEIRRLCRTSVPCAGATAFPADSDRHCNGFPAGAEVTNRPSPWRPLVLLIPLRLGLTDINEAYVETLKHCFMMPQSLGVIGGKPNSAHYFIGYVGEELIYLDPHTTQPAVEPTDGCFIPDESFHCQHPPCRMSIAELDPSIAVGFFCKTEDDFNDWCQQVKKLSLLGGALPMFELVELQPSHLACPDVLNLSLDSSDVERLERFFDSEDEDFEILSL
It counts as functional.

Test [7] has as its target Eukaryotic translation initiation factor 4E (Mus musculus, UniProt P63073). Nature of the test: blockers of eIF4G binding by eIF4E – biochemical, TR-FRET, dose response (AID 855).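 Also: potency for disrupting eIF4E binding to eIF4GI seen as loss of FRET.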 Type of test: functional.
Test [8] concerns the target T4, Mannose-6-phosphate isomerase (Homo sapiens, UniProt P34949).
T4 sequence (P34949 whole entry): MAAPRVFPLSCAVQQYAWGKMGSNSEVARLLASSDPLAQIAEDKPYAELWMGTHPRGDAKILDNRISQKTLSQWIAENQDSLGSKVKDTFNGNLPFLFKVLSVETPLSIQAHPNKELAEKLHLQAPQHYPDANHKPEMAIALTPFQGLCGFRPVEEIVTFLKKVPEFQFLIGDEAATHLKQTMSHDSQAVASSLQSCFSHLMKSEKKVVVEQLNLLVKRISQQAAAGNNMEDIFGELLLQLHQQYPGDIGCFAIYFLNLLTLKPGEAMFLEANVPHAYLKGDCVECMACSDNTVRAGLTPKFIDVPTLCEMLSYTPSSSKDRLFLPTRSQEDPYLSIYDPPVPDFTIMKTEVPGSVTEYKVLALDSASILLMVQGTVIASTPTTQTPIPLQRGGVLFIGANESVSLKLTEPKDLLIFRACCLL
Nature of the test: MPI inhibition at elevated mannose 6-phosphate – biochemical, fluorescence intensity, high mannose 6-phosphate, primary screen (AID 1220).

In test [9] the target is Peroxisome proliferator-activated receptor gamma/Nuclear receptor coactivator 2 (Homo sapiens, UniProt P37231). It counts as functional.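 Also: agonist potency for raising coactivator recruitment to the receptor.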
Chain of Peroxisome proliferator-activated receptor gamma/Nuclear receptor coactivator 2 (P37231 whole entry): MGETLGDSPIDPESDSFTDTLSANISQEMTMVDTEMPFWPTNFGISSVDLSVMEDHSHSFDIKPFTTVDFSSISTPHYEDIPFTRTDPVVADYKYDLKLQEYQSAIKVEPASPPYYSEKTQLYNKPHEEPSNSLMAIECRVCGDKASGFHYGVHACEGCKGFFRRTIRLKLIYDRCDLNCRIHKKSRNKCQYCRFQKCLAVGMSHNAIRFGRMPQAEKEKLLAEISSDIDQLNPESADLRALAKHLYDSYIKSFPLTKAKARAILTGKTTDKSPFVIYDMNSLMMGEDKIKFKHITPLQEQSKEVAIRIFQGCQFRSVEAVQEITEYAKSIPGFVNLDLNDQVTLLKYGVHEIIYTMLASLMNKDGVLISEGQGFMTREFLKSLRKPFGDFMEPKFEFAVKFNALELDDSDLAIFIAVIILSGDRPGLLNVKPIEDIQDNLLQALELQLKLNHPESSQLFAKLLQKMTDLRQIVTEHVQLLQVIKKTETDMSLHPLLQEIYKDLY
Chain of Peroxisome proliferator-activated receptor gamma/Nuclear receptor coactivator 2 (Q15596 whole entry, further chain): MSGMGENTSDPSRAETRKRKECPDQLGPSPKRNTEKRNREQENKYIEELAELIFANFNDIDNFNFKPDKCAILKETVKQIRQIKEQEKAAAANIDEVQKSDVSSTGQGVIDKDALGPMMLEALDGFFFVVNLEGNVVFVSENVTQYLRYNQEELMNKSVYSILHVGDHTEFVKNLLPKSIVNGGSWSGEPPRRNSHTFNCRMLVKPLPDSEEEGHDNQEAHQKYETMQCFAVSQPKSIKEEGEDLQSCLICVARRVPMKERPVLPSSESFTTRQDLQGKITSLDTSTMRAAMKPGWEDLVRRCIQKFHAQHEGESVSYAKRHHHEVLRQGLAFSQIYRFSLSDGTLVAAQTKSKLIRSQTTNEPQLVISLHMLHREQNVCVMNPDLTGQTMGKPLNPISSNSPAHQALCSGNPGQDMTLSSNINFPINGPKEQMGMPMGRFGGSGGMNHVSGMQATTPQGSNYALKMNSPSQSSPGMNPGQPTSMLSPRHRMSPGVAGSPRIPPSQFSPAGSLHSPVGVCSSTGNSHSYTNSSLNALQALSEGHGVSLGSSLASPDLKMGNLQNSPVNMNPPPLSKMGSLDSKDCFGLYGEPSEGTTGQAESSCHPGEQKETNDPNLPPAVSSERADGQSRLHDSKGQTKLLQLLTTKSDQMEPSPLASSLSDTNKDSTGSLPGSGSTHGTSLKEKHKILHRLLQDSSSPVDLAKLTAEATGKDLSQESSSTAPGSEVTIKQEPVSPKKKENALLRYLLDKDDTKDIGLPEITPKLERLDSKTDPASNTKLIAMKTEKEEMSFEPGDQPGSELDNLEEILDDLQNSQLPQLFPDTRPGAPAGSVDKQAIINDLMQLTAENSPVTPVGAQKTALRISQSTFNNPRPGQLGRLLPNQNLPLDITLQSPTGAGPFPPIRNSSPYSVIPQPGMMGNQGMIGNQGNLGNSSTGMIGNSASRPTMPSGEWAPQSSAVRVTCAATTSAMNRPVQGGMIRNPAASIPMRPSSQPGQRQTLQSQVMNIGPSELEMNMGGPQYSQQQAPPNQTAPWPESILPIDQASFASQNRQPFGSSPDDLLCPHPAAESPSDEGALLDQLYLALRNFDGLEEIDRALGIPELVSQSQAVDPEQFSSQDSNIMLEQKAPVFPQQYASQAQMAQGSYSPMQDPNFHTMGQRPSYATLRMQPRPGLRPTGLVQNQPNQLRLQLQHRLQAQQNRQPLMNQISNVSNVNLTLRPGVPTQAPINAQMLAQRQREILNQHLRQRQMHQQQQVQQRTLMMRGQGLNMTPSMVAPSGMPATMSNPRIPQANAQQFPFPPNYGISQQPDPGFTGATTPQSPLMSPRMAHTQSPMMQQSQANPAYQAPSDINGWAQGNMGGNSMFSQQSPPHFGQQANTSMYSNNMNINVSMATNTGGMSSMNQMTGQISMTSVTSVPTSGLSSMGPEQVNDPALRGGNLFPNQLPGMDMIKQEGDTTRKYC

Chain of Photoreceptor-specific nuclear receptor (Q9Y5X4 whole entry, the tested form may be a part): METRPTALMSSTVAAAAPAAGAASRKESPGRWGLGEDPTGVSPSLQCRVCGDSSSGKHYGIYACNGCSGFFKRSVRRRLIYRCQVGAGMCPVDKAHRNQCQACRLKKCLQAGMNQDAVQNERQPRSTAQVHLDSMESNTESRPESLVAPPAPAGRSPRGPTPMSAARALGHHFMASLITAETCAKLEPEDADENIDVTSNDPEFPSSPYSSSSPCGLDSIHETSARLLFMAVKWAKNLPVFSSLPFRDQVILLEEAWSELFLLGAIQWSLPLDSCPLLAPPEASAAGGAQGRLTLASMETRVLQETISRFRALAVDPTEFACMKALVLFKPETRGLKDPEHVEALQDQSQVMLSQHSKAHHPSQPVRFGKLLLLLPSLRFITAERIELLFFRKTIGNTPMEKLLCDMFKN
Chain of Eukaryotic translation initiation factor 4E (P63073 whole entry): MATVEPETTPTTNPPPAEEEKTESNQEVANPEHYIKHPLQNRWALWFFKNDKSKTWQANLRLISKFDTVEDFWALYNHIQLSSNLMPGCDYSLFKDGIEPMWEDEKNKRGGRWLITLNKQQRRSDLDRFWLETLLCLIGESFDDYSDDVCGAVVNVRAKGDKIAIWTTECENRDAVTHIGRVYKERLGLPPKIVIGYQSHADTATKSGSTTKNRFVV

As for `O=C(NC1(O)C(=O)c2ccccc2C1=O)c1ccccc1`, the IC50 in [1] was 2.39 µM (active).
Consider `O=C(Nc1ccccc1Cl)/C(Cl)=C(\Cl)[S+]([O-])c1ccccc1` (stereo not given), for which the IC50 in test [2] is 2.52 µM (active); in test [3], 61.9 µM (inactive); in [4], 2.92 µM (active); in test [5], 22.8 µM (active). For the same molecule, in [6], the CC50 was 28.9 µM (active).
Turning to `CCCCCCCCCCCCCCCCn1cc[n+](C)c1`, the values for the IC50 (at Cysteine protease ATG4B; in test [7]) were 4.47 µM (active) and 12.9 µM (active), respectively.
As for `Cc1cc(C)nc(/N=c2/ssnc2Cl)c1`, the IC50 in test [8] is 28.8 µM (active). Also, the EC50 in [9] is > 79.4 µM (not active).
